PubChem BioAssay (NCI)
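Results reflect a 48-hour exposure of cells in 96-well plates to compound at five concentrations. At the GI50, growth is halved. TGI: total growth inhibition.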

Assays:
Test in all cases: NCI-60 cell line screen, 48 h
[1] = test system: UO-31 renal
[2] = test system: ACHN renal
[3] = test system: CCRF-CEM leukemia
[4] = test system: IGROV1 ovarian
[5] = test system: NCI-H23 lung
[6] = test system: HOP-62 NSCLC
[7] = test system: RPMI-8226 leukemia
[8] = test system: SK-MEL-2 melanoma
[9] = test system: UACC-62 melanoma
[10] = test system: HCT-15 colon
[11] = test system: MDA-MB-468 breast
[12] = test system: NCI-H226 lung
[13] = test system: PC-3 prostate
[14] = test system: HT29 colon
[15] = test system: KM12 colon
[16] = test system: COLO 205 colon
[17] = test system: BT-549 breast
[18] = test system: NCI-H522 lung
[19] = test system: NCI-H460 lung
[20] = test system: NCI/ADR-RES ovarian
[21] = test system: SF-295 CNS
[22] = test system: SR leukemia
[23] = test system: 786-0 renal
[24] = test system: OVCAR-5 ovarian
[25] = test system: SK-OV-3 ovarian
[26] = test system: UACC-257 melanoma
[27] = test system: MDA-MB-435
[28] = test system: MALME-3M melanoma
[29] = test system: HL-60(TB) leukemia
[30] = test system: A498 renal
[31] = test system: CAKI-1 renal
[32] = test system: OVCAR-4 ovarian
[33] = test system: M14 melanoma
[34] = test system: SN12C renal
[35] = test system: SK-MEL-28 melanoma
[36] = test system: OVCAR-3 ovarian
[37] = test system: OVCAR-8 ovarian
[38] = test system: MOLT-4 leukemia
[39] = test system: K-562 leukemia
[40] = test system: T-47D breast
[41] = test system: A549 NSCLC
[42] = test system: EKVX NSCLC
[43] = test system: HS 578T breast
[44] = test system: RXF 393 renal
[45] = test system: TK-10 renal
[46] = test system: HCT-116 colon
[47] = test system: SF-539 CNS
[48] = test system: SK-MEL-5 melanoma
[49] = test system: SNB-19 CNS
[50] = test system: MDA-MB-231 breast
[51] = test system: SNB-75 CNS
[52] = test system: HOP-92 NSCLC
[53] = test system: SF-268 CNS
[54] = test system: DU-145 prostate
[55] = test system: U251 CNS
[56] = test system: MCF7 breast
[57] = test system: LOX IMVI melanoma

CCOc1ccc(/C=N/NC(=O)Cn2nc(Cc3ccc([N+](=O)[O-])cc3)c3onc(C)c3c2=O)cc1 was tested. Which GI50 [1] did it give?
Its GI50 is 3.45 µM.

What about the TGI [1] of the same molecule?
The TGI was over 100 µM.

What about the GI50 [2] of the same molecule?
Its GI50 is 3.33 µM.

What about the TGI [2] of the same molecule?
Its TGI is 11 µM.

What about the GI50 [3] of the same molecule?
Its GI50 is over 100 µM.

What about the TGI [3] of the same molecule?
The TGI was over 100 µM.

And the GI50 [4]?
The GI50 was 27.6 µM.

What about the TGI [4] of the same molecule?
Its TGI is over 100 µM.

What about the GI50 [5] of the same molecule?
The GI50 was 7.06 µM.

And the TGI [5]?
The TGI was 35.1 µM.

And the GI50 [6]?
Its GI50 is 2.55 µM.

And the TGI [6]?
The TGI was 6.99 µM.

And the GI50 [7]?
The GI50 was over 100 µM.

And the TGI [7]?
Its TGI is over 100 µM.

And the GI50 [8]?
The GI50 was 13.8 µM.

And the TGI [8]?
The TGI was 36.9 µM.

What about the GI50 [9] of the same molecule?
Its GI50 is 12.9 µM.

What about the TGI [9] of the same molecule?
Its TGI is 93.9 µM.

And the GI50 [10]?
Its GI50 is over 100 µM.

And the TGI [10]?
The TGI was over 100 µM.

What about the GI50 [11] of the same molecule?
Its GI50 is 3.35 µM.

And the TGI [11]?
The TGI was 20 µM.

And the GI50 [12]?
Its GI50 is 2.43 µM.

What about the TGI [12] of the same molecule?
The TGI was 6.99 µM.

And the GI50 [13]?
Its GI50 is 6.35 µM.

And the TGI [13]?
Its TGI is over 100 µM.

And the GI50 [14]?
The GI50 was over 100 µM.

What about the TGI [14] of the same molecule?
The TGI was over 100 µM.

What about the GI50 [15] of the same molecule?
The GI50 was over 100 µM.

What about the TGI [15] of the same molecule?
Its TGI is over 100 µM.

And the GI50 [16]?
Its GI50 is over 100 µM.

What about the TGI [16] of the same molecule?
The TGI was over 100 µM.

And the GI50 [17]?
The GI50 was 20.3 µM.

And the TGI [17]?
Its TGI is over 100 µM.

And the GI50 [18]?
Its GI50 is 3.26 µM.

What about the TGI [18] of the same molecule?
The TGI was 32.5 µM.

What about the GI50 [19] of the same molecule?
Its GI50 is 4.37 µM.

And the TGI [19]?
The TGI was over 100 µM.

And the GI50 [20]?
The GI50 was 6.53 µM.

And the TGI [20]?
Its TGI is over 100 µM.

And the GI50 [21]?
The GI50 was 3.26 µM.

What about the TGI [21] of the same molecule?
Its TGI is 10.8 µM.

What about the GI50 [22] of the same molecule?
The GI50 was over 100 µM.

And the TGI [22]?
The TGI was over 100 µM.

And the GI50 [23]?
The GI50 was 2.47 µM.

And the TGI [23]?
Its TGI is 6.64 µM.

And the GI50 [24]?
The GI50 was over 100 µM.

And the TGI [24]?
Its TGI is over 100 µM.

And the GI50 [25]?
The GI50 was 8.24 µM.

What about the TGI [25] of the same molecule?
Its TGI is 27.2 µM.

And the GI50 [26]?
The GI50 was 69.9 µM.

What about the TGI [26] of the same molecule?
The TGI was over 100 µM.

And the GI50 [27]?
Its GI50 is over 100 µM.

What about the TGI [27] of the same molecule?
Its TGI is over 100 µM.

What about the GI50 [28] of the same molecule?
Its GI50 is 6.71 µM.

What about the TGI [28] of the same molecule?
The TGI was 44.9 µM.

And the GI50 [29]?
Its GI50 is over 100 µM.

And the TGI [29]?
The TGI was over 100 µM.

What about the GI50 [30] of the same molecule?
Its GI50 is 4.88 µM.

What about the TGI [30] of the same molecule?
The TGI was 21 µM.

And the GI50 [31]?
The GI50 was 3.08 µM.

And the TGI [31]?
The TGI was 12.3 µM.

And the GI50 [32]?
The GI50 was 3.26 µM.

What about the TGI [32] of the same molecule?
Its TGI is over 100 µM.

And the GI50 [33]?
The GI50 was 28.2 µM.

And the TGI [33]?
Its TGI is over 100 µM.

What about the GI50 [34] of the same molecule?
Its GI50 is over 100 µM.

And the TGI [34]?
The TGI was over 100 µM.

What about the GI50 [35] of the same molecule?
The GI50 was 6.14 µM.

And the TGI [35]?
The TGI was over 100 µM.

And the GI50 [36]?
Its GI50 is 9.59 µM.

What about the TGI [36] of the same molecule?
The TGI was over 100 µM.

And the GI50 [37]?
The GI50 was 10.1 µM.

What about the TGI [37] of the same molecule?
The TGI was over 100 µM.

And the GI50 [38]?
Its GI50 is over 100 µM.

What about the TGI [38] of the same molecule?
The TGI was over 100 µM.

What about the GI50 [39] of the same molecule?
The GI50 was over 100 µM.

What about the TGI [39] of the same molecule?
Its TGI is over 100 µM.

What about the GI50 [40] of the same molecule?
The GI50 was 2.57 µM.

What about the TGI [40] of the same molecule?
Its TGI is over 100 µM.

What about the GI50 [41] of the same molecule?
Its GI50 is 4.19 µM.

What about the TGI [41] of the same molecule?
The TGI was over 100 µM.

What about the GI50 [42] of the same molecule?
Its GI50 is over 100 µM.

And the TGI [42]?
The TGI was over 100 µM.

What about the GI50 [43] of the same molecule?
The GI50 was 2.84 µM.

What about the TGI [43] of the same molecule?
Its TGI is 8.23 µM.

What about the GI50 [44] of the same molecule?
Its GI50 is 2.57 µM.

What about the TGI [44] of the same molecule?
Its TGI is 7.35 µM.

And the GI50 [45]?
The GI50 was 2.41 µM.

What about the TGI [45] of the same molecule?
Its TGI is 6.62 µM.

What about the GI50 [46] of the same molecule?
Its GI50 is 3.21 µM.

And the TGI [46]?
Its TGI is over 100 µM.

What about the GI50 [47] of the same molecule?
Its GI50 is 3.1 µM.

And the TGI [47]?
The TGI was 10.1 µM.

What about the GI50 [48] of the same molecule?
Its GI50 is 6.85 µM.

What about the TGI [48] of the same molecule?
The TGI was over 100 µM.

And the GI50 [49]?
The GI50 was 3.41 µM.

What about the TGI [49] of the same molecule?
Its TGI is 14.1 µM.

And the GI50 [50]?
Its GI50 is 2.3 µM.

What about the TGI [50] of the same molecule?
The TGI was 6.44 µM.

What about the GI50 [51] of the same molecule?
Its GI50 is 1.6 µM.

What about the TGI [51] of the same molecule?
The TGI was 7.67 µM.

What about the GI50 [52] of the same molecule?
The GI50 was 2.41 µM.

And the TGI [52]?
Its TGI is 8.23 µM.

And the GI50 [53]?
The GI50 was 5.75 µM.

What about the TGI [53] of the same molecule?
The TGI was 68.5 µM.

And the GI50 [54]?
The GI50 was 11.2 µM.

And the TGI [54]?
Its TGI is over 100 µM.

What about the GI50 [55] of the same molecule?
The GI50 was 2.3 µM.

And the TGI [55]?
The TGI was 7.06 µM.

What about the GI50 [56] of the same molecule?
The GI50 was over 100 µM.

And the TGI [56]?
The TGI was over 100 µM.

And the GI50 [57]?
Its GI50 is 5.34 µM.

And the TGI [57]?
The TGI was over 100 µM.
